Test results published in patent publication US7915245B2, “Methods and compositions of trail-death receptor agonists/activators” (The Board of Regents of the University of Texas System, priority 2007, dated 2011).

What was measured:
AsPC-1 cells = experiment: XTT cell viability with caspase inhibitor pretreatment, AsPC-1; type: cell-based, human; details: then DRA 72 h; for effect of caspase-3 inhibitor (z-DEVD-fmk) on the DRA effect on cell viability: Z-DEVD-fmk 25 μM 2 h pretreatment; for effect of caspase-8 inhibitor (Ac-IETD-CHO) on the DRA effect on cell viability: caspase-8 inhibitor 25 μM 2 h pretreatment; for effect of pan caspase inhibitor (z-VAD-fmk) on the DRA effect on cell viability: inhibitor 25 μM 2 h pretreatment
Method: (§1) FIG. 5. […] AsPC-1 cells were pretreated with either control peptide (25 μM) or caspase-3 inhibitor (Z-DEVD-fmk, 25 μM) for 2 h, followed by treatment with various doses of DRA11, DRA9 and DRA9S for 72 h. At the end of incubation, cell viability was measured by XTT assay. Data represent the mean±S.D. Control refers to a group treated with DMSO (0.01%).
as §1, with “6.” for “5.”, “caspase-8” for “caspase-3”, “(25” for “(Z-DEVD-fmk, 25”
as §1, with “7.” for “5.”, “caspase-8” for “caspase-3”, “(25” for “(Z-DEVD-fmk, 25”
(§2) XTT Assay. Cells (1×10^4 cells per well) were seeded in 96-well plates (flat bottom), and treated with death receptor agonists/activators/small molecules in the presence or absence of TNF-related apoptosis inducing ligand (TRAIL). Plates were incubated for various time points at 37° C. and 5% CO2. Before the end of the experiment, 50 μl XTT (sodium 3′[1-(phenylaminocarbonyl)-3,4-tetrazolium]-bis(4-methoxy-6-nitro) benzene sulfonic acid hydrate) labeling mixture (final concentration, 125 μM sodium XTT and 25 μM PMS) per well was added and plates were incubated for a further 4 h at 37° C. and 5% CO2. The spectrophotometric absorbance of the sample was measured using a microtitre plate (ELISA) reader. The wavelength to measure absorbance of the formazan product was 450 nm, and the reference wavelength was 650 nm.
(§3) AsPC-1 cells were pretreated with either control peptide (25 μM) or caspase-3 inhibitor (Z-DEVD-fink, 25 μM) for 2 h, followed by treatment with various doses of DRA11, DRA9 and DRA9S for 72 h. At the end of incubation, cell viability was measured by XTT assay. See, for example, FIG. 5. Data represent the mean±S.D. Control refers to a group treated with DMSO (0.01%).
as §3, with “caspase-8” for “caspase-3”, “(25” for “(Z-DEVD-fink, 25”, “6.” for “5.”
as §3, with “caspase-8” for “caspase-3”, “(25” for “(Z-DEVD-fink, 25”, “7.” for “5.”

[1] = system: breast cancer MDA-MB-231 cell line; experiment: XTT cell viability with signaling inhibitor pretreatment, MDA-MB-231; type: cell-based, human; details: then DRA 72 h; for effect of Akt inhibitor on the inhibitory effect on cell viability: Akt inhibitor 0.5 μM 4 h pretreatment; for effect of PI-3 kinase inhibitor LY294002 on the inhibitory effect on cell viability: LY294002 2.5 μM 4 h pretreatment; for effect of NFκB inhibitor MG132 on the inhibitory effect on cell viability: MG132 2.5 μM 4 h pretreatment
Method: FIG. 39. […] MDA-MB-231 cells were pretreated with NFκB inhibitor MG132 (2.5 μM) for 4 h followed by treatment with various concentrations of DRA11, DRA9, and DRA9S for 72 h. At the end of incubation, cell viability was measured by XTT assay. Data represent the mean±S.D.
FIG. 40. […] MDA-MB-231 cells were pretreated with LY294002 (2.5 μM) for 4 h followed by treatment with various concentrations of DRA11, DRA9, and DRA9S for 72 h. At the end of incubation, cell viability was measured by XTT assay. Data represent the mean±S.D.
FIG. 41. […] MDA-MB-231 cells were pretreated with Akt inhibitor (0.5 μM) for 4 h followed by treatment with various concentrations of DRA11, DRA9, and DRA9S for 72 h. At the end of incubation, cell viability was measured by XTT assay. Data represent the mean±S.D.
as §2

[2] = system: mesothelioma M9K cell line; experiment: XTT cell viability, mesothelioma M9K; type: cell-based; details: then DRA 72 h; for effect of NFκB inhibitor MG132 on the inhibitory effect on cell viability: MG132 2.5 μM 4 h; for effect of pan caspase inhibitor (z-VAD-fmk) on the inhibitory effect on cell viability: z-VAD-fmk 25 μM 2 h pretreatment
Method: FIG. 43. […] Mesothelioma M9K cells were treated with NFκB inhibitor MG132 (2.5 μM) for 4 h followed by treatment with various concentrations of DRA11, DRA9, and DRA9S for 72 h. At the end of incubation, cell viability was measured by XTT assay. Data represent the mean±S.D.
(§4) FIG. 52. […] M9K cells were pretreated with either control peptide (10 μM) or pan caspase inhibitor (z-VAD-fmk, 25 μM) for 2 h, followed by treatment with various doses of DRA11, DRA9 and DRA9S for 72 h. At the end of incubation, cell viability was measured by XTT assay. Data represent the mean±S.D.
as §2

[3] = system: mesothelioma MS1 cell line; experiment: XTT cell viability, mesothelioma MS1; type: cell-based; details: then DRA 72 h; for effect of NFκB inhibitor MG132 on the inhibitory effect on cell viability: MG132 2.5 μM 4 h
Method: FIG. 44. […] Mesothelioma MS1 cells were treated with NFκB inhibitor MG132 (2.5 μM) for 4 h followed by treatment with various concentrations of DRA11, DRA9, and DRA9S for 72 h. At the end of incubation, cell viability was measured by XTT assay. Data represent the mean±S.D.
FIG. 54. […] MS1 cells were pretreated with either control peptide (10 μM) or pan caspase inhibitor (z-VAD-fmk, 25 μM) for 2 h, followed by treatment with various doses of DRA11, DRA9 and DRA9S for 72 h. At the end of incubation, cell viability was measured by XTT assay. Data represent the mean±S.D.
as §2

[4] = system: mesothelioma REN cell line; experiment: XTT cell viability, mesothelioma REN; type: cell-based; details: then DRA 72 h; for effect of NFκB inhibitor MG132 on the inhibitory effect on cell viability: MG132 2.5 μM 4 h
Method: FIG. 45. […] Mesothelioma REN cells were treated with NFκB inhibitor MG132 (2.5 μM) for 4 h followed by treatment with various concentrations of DRA11, DRA9, and DRA9S for 72 h. At the end of incubation, cell viability was measured by XTT assay. Data represent the mean±S.D.
as §4, with “55.” for “52.”, “REN” for “M9K”, “(z-VAD-fink,” for “(z-VAD-fmk,”
as §2

[5] = z-VAD-fmk 25 μM 2 h pretreatment

| SMILES | effect of caspase-3 inhibitor (z-DEVD-fmk) on the DRA effect on cell viability (AsPC-1 cells) | effect of caspase-8 inhibitor (Ac-IETD-CHO) on the DRA effect on cell viability (AsPC-1 cells) | effect of pan caspase inhibitor (z-VAD-fmk) on the DRA effect on cell viability (AsPC-1 cells) | effect of Akt inhibitor on the inhibitory effect on cell viability [1] | effect of PI-3 kinase inhibitor LY294002 on the inhibitory effect on cell viability [1] | effect of NFκB inhibitor MG132 on the inhibitory effect on cell viability [1] | effect of NFκB inhibitor MG132 on the inhibitory effect on cell viability [2] | effect of pan caspase inhibitor (z-VAD-fmk) on the inhibitory effect on cell viability [2] | effect of NFκB inhibitor MG132 on the inhibitory effect on cell viability [3] | effect of NFκB inhibitor MG132 on the inhibitory effect on cell viability [4] | effect of pan caspase inhibitor (z-VAD-fmk) on the inhibitory effect on cell viability [3, 5] | effect of pan caspase inhibitor (z-VAD-fmk) on the inhibitory effect on cell viability [4, 5] |
| --- | --- | --- | --- | --- | --- | --- | --- | --- | --- | --- | --- | --- |
| CCOc1cc(Br)c(Br)c(/C=N/c2cccc(C(=O)O)c2C)c1O [DRA9S] | blocks the effects | blocks the effects | blocks effects | enhances the inhibitory effects | enhances the inhibitory effects | enhances the inhibitory effects | enhances the inhibitory effects | blocks the inhibitory effects | enhances the inhibitory effects | enhances the inhibitory effects | – | – |
| CCOc1cc(Br)c(Br)c(/C=N/c2cccc(C(=O)O)c2)c1O [DRA9] | blocks the effects | blocks the effects | blocks effects | enhances the inhibitory effects | enhances the inhibitory effects | enhances the inhibitory effects | enhances the inhibitory effects | blocks the inhibitory effects | enhances the inhibitory effects | enhances the inhibitory effects | blocks the inhibitory effects | blocks the inhibitory effects |
